Assay [1] addresses Chromodomain-helicase-DNA-binding protein 4 (Homo sapiens, UniProt Q14839).
The target of a further assay is T1, Ephrin type-B receptor 3 (Homo sapiens, UniProt P54753).
T1 sequence (P54753 whole entry): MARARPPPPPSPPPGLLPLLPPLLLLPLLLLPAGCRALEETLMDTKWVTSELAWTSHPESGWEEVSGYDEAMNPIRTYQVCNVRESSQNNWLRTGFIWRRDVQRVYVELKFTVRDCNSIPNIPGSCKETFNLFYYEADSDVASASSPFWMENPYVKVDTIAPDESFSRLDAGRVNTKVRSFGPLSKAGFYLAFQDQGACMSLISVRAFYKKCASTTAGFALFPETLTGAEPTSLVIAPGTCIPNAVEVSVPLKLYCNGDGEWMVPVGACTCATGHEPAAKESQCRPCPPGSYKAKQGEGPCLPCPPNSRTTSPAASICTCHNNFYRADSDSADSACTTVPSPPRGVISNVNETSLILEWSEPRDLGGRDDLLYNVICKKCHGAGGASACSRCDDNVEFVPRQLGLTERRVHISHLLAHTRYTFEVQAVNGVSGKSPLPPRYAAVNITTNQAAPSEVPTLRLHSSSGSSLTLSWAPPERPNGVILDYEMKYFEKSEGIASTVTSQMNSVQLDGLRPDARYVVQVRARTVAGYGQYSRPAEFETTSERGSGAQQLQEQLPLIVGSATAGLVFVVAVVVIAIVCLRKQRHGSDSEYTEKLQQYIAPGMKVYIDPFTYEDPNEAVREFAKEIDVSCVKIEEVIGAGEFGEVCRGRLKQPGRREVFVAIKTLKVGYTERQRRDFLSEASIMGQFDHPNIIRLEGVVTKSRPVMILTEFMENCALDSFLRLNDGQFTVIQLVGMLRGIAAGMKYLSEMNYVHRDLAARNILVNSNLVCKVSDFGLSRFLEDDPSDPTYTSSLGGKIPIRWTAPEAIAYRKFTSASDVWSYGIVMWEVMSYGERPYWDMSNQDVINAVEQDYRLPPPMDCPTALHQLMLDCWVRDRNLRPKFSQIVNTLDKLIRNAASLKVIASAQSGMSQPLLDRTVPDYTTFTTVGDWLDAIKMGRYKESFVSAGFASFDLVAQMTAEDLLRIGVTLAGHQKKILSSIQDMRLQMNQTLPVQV

Assay [2] deals with Serine/threonine-protein kinase/endoribonuclease IRE1 (Homo sapiens, UniProt O75460).
Sequence of Serine/threonine-protein kinase/endoribonuclease IRE1 (O75460 whole entry): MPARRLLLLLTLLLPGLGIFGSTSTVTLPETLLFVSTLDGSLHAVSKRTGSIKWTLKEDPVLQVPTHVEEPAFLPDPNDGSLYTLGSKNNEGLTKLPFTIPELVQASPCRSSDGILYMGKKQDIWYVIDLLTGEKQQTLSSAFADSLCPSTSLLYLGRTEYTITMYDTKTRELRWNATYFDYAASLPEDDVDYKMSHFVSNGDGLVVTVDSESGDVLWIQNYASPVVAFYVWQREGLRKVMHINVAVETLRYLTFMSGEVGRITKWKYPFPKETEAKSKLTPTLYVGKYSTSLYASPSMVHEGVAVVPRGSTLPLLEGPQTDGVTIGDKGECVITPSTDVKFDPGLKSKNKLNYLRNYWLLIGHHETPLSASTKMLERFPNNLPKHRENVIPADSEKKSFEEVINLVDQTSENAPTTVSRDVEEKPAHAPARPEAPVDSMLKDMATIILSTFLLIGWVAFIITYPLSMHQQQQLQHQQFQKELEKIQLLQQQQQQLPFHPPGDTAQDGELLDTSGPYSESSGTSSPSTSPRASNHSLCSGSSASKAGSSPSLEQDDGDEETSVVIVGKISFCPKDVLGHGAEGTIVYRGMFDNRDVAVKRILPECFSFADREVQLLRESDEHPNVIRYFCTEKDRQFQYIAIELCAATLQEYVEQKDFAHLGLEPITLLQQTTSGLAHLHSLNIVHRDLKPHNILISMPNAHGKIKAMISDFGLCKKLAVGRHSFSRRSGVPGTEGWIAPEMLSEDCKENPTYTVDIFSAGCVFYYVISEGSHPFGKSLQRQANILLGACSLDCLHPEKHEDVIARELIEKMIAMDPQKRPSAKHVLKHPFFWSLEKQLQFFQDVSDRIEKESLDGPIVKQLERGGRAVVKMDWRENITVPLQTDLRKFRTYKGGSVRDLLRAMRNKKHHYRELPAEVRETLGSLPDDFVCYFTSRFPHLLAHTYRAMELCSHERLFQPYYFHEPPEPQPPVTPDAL
Assay [3] addresses T2, Serine/threonine-protein kinase LATS1 (Homo sapiens, UniProt O95835).
T2 sequence (O95835 whole entry): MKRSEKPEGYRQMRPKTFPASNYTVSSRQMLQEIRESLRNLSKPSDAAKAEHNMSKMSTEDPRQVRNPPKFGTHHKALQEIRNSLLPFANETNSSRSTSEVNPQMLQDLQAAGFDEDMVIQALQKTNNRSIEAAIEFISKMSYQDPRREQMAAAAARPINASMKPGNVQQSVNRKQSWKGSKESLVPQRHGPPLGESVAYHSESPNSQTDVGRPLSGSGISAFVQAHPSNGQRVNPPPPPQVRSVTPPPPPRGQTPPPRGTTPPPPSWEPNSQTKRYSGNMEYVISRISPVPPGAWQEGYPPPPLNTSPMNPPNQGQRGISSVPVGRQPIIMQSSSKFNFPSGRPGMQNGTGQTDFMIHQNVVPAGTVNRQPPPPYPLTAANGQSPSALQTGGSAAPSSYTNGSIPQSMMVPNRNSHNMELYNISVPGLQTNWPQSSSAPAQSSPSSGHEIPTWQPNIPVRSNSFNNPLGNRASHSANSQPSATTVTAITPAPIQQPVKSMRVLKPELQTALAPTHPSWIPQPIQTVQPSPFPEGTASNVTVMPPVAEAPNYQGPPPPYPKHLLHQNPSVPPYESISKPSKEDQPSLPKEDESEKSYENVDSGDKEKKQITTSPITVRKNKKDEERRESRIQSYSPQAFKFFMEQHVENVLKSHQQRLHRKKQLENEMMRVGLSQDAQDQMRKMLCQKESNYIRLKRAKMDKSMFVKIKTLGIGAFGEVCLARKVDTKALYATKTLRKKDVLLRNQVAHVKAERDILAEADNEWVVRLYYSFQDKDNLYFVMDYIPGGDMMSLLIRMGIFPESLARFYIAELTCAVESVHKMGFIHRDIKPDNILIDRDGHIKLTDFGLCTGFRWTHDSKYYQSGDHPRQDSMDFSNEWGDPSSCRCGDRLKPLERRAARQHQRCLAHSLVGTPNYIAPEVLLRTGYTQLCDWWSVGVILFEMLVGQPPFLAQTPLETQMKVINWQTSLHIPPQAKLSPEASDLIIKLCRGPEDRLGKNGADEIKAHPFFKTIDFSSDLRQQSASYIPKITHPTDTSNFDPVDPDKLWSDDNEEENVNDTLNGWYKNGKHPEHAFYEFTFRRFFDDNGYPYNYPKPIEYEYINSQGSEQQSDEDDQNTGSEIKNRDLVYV

The target in assay [4] is Mitogen-activated protein kinase kinase kinase kinase 4 (Homo sapiens, UniProt O95819).
Sequence of Mitogen-activated protein kinase kinase kinase kinase 4 (O95819 whole entry): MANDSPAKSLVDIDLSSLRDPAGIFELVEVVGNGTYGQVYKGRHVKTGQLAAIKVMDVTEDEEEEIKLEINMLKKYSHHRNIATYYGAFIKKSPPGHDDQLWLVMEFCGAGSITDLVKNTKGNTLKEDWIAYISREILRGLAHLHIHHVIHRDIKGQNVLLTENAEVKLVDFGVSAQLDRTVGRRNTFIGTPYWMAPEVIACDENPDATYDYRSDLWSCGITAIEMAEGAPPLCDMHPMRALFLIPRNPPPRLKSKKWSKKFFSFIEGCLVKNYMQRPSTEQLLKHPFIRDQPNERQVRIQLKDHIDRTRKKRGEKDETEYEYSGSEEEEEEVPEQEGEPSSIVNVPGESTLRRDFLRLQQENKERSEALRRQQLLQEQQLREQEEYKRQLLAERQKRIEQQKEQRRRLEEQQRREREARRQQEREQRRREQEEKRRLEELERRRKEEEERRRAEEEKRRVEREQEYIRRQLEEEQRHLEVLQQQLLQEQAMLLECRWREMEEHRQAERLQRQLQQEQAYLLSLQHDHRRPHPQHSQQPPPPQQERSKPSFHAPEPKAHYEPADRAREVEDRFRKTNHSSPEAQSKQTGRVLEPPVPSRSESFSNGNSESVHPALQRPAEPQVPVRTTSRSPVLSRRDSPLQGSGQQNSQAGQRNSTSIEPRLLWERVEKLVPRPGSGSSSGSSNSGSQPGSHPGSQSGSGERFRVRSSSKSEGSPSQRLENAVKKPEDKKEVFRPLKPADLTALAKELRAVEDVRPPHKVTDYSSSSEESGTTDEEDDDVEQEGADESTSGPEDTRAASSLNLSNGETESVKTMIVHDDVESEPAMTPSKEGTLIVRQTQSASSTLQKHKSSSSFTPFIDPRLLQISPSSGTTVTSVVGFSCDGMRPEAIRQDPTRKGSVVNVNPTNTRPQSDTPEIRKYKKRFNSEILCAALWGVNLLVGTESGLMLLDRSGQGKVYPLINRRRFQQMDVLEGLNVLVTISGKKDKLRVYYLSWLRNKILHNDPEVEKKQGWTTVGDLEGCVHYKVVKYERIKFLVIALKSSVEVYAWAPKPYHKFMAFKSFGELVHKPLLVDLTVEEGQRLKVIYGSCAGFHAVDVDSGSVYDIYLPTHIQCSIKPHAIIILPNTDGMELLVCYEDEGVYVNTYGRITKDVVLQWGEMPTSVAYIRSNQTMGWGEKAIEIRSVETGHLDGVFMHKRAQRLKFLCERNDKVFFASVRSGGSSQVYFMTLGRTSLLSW
Assay [5] addresses Macrophage-stimulating protein receptor (Homo sapiens, UniProt Q04912).
Assay [6] deals with Serine/threonine-protein kinase PAK 2 (Homo sapiens, UniProt Q13177).
Sequence of Serine/threonine-protein kinase PAK 2 (Q13177 whole entry): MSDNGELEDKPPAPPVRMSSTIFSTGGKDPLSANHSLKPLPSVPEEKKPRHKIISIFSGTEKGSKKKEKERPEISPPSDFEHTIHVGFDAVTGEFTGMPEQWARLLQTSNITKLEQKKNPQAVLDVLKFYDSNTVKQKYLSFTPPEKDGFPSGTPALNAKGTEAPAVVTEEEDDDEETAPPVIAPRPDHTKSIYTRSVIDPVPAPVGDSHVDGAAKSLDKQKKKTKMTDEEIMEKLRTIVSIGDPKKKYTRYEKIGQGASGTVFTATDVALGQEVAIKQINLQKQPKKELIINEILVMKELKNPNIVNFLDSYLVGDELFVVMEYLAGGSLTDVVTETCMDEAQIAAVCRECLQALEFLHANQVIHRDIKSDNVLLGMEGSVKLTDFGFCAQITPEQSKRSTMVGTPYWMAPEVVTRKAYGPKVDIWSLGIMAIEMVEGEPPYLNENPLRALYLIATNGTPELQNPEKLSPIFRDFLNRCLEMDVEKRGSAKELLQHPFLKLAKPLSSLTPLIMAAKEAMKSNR
Assay [7] has as its target T3, Uncharacterized protein FLJ45252 (Homo sapiens, UniProt Q6ZSR9).
T3 sequence (Q6ZSR9 whole entry): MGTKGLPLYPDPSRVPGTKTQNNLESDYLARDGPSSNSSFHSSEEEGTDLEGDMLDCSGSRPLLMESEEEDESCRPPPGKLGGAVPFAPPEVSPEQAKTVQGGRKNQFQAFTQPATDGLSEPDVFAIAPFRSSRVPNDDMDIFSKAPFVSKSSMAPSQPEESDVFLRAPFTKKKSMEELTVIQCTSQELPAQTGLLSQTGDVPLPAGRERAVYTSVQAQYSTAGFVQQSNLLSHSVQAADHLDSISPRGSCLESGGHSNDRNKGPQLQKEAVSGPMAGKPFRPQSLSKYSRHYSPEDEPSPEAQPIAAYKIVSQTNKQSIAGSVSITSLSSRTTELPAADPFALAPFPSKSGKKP
The following applies: read-out: Kd apparent; k-562, colo 205, sk-n-be(2) and mv-4-11.

The values that follow come from ChEMBL document CHEMBL3991601, “The target landscape of clinical kinase drugs” (Science, 2017).

SMILES strings stand for the structures. Calls of active or inactive are those of the source. Rule as the data show it, for most assays here: actives have a measured Kd and inactives only a lower limit.
Also: in the data inactive means no Kd found up to 30 µM.

Sequence of Macrophage-stimulating protein receptor (Q04912 25-304 limits assumed): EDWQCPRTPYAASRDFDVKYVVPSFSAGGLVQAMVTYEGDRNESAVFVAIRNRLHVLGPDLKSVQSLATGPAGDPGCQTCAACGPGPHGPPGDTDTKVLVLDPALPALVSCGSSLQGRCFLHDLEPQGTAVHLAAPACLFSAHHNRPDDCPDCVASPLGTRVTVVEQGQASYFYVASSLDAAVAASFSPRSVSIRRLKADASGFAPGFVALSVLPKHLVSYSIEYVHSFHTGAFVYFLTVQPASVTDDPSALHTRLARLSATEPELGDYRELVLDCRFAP
Sequence of Macrophage-stimulating protein receptor (Q04912 310-1400 limits assumed): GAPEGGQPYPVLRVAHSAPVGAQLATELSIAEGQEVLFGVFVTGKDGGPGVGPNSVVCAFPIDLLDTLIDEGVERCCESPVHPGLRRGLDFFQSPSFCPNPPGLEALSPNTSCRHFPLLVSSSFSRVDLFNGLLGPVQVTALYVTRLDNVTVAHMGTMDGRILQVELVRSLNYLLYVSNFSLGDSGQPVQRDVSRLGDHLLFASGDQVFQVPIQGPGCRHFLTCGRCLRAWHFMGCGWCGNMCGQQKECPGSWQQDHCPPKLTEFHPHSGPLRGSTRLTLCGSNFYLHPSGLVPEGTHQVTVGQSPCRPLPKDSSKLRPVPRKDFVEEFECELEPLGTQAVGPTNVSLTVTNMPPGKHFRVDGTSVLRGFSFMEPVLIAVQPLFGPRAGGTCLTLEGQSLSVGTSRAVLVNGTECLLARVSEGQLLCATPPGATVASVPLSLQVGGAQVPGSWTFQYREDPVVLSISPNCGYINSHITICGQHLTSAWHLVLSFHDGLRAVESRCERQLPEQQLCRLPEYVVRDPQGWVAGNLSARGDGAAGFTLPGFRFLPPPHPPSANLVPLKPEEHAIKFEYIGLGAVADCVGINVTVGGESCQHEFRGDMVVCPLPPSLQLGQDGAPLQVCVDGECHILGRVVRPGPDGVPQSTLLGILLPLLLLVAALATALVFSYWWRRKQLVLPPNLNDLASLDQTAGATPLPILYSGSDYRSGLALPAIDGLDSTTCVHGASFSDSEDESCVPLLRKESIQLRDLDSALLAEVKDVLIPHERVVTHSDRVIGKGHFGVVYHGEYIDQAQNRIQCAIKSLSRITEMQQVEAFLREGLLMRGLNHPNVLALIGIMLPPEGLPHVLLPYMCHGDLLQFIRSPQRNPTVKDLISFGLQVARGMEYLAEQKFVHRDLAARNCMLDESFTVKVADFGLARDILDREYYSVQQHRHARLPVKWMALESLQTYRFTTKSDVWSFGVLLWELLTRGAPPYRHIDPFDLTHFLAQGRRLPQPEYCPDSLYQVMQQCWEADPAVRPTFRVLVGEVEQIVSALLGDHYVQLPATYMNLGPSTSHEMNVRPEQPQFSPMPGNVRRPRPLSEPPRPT

Take `COc1cc2nccc(Oc3ccc(NC(=O)NC4CC4)c(Cl)c3)c2cc1C(N)=O` [LENVATINIB]: the Kd in assay [1] is > 30 µM (inactive); at Ephrin type-B receptor 3 it was > 30 µM (inactive); in assay [2], 2.24 µM; in assay [3] it was > 30 µM (inactive); in assay [4], > 30 µM (inactive); in assay [5] it was > 30 µM (inactive). In addition, the Kd in assay [6] and in assay [7] was > 30 µM (inactive) each time.

Consider `CO[C@H]1C[C@@H]2CC[C@@H](C)[C@@](O)(O2)C(=O)C(=O)N2CCCC[C@H]2C(=O)O[C@H]([C@H](C)C[C@@H]2CC[C@@H](OCCO)[C@H](OC)C2)CC(=O)[C@H](C)/C=C(\C)[C@@H](O)[C@@H](OC)C(=O)[C@H](C)C[C@H](C)/C=C/C=C/C=C/1C` [EVEROLIMUS], for which the Kd (in assay [1]; at Ephrin type-B receptor 3; in assay [2]; in assay [3]; in assay [4]; in assay [5]) was > 30 µM (inactive) in each case. In addition, the Kd in assay [6] and in assay [7] was > 30 µM (inactive) each time.

`Cc1ccc(NC(=O)c2ccc(CN3CC[C@H](N(C)C)C3)c(C(F)(F)F)c2)cc1Nc1nccc(-c2cncnc2)n1` [BAFETINIB]: the Kd in assay [1] was > 30 µM (inactive); at Ephrin type-B receptor 3 it was 4.55 µM (active); in assay [2], > 30 µM (inactive); in assay [3], > 30 µM (inactive); in assay [4] it was > 30 µM (inactive); in assay [5] it was > 30 µM (inactive). In addition, the Kd in assay [6] and in assay [7] was > 30 µM (inactive) in each case.

`CC(C)Nc1cc(-c2c[nH]c(C(=O)N[C@H](CO)c3cccc(Cl)c3)c2)c(Cl)cn1` [ULIXERTINIB]: the Kd (in assay [1]; at Ephrin type-B receptor 3; in assay [2]; in assay [3]; in assay [4]; in assay [5]) was > 30 µM (inactive) throughout. The Kd in assay [6] and in assay [7] was > 30 µM (inactive) in each case.

Consider `O=C1NC(=O)/C(=C/c2ccc3nccc(-c4ccncc4)c3c2)S1` [GSK-1059615], for which the Kd (in assay [1]; at Ephrin type-B receptor 3; in assay [2]; in assay [3]; in assay [4]; in assay [5]) was > 30 µM (inactive) in each case. Also, the Kd is > 30 µM (inactive) in assay [6] and 0.078 µM (active) in assay [7].

Consider `CNC(=O)c1ccc(-c2cnc3ncc(Cc4ccc5ncccc5c4)n3n2)cc1F` [CAPMATINIB], for which the Kd (on Ephrin type-B receptor 3; in assay [2]; in assay [3]; in assay [4]; in assay [5]; in assay [6]) was > 30 µM (inactive) each time. In assay [7], the Kd was > 30 µM (inactive).

As to `CNC(=O)c1ccc(C)c(-n2c(C)cc(OCc3ccc(F)cc3F)c(Br)c2=O)c1` [PH-797804], the Kd (at Ephrin type-B receptor 3; in assay [2]; in assay [3]; in assay [4]; in assay [5]; in assay [6]) was > 30 µM (inactive) each time. In addition, the Kd in assay [7] was > 30 µM (inactive).

Turning to `C[C@@H](c1ccc2nccn2c1)n1nnc2ncc(-c3cnn(C)c3)nc21` [SAVOLITINIB], the Kd (at Ephrin type-B receptor 3; in assay [2]; in assay [3]; in assay [4]; in assay [5]; in assay [6]) was > 30 µM (inactive) throughout. The Kd in assay [7] was > 30 µM (inactive).
